Reference: ChEMBL document CHEMBL2073832, “Induction of cMrp/cMoat gene expression by cisplatin, 2-acetylaminofluorene, or cycloheximide in rat hepatocytes” (Hepatology, 1997)

Target: ATP-binding cassette sub-family C member 2 (Rattus norvegicus, UniProt Q63120)
Test: TP_TRANSPORTER: Northern blot from primary hepatocytes
Type: functional, cell-based, Hepatocyte

ATP-binding cassette sub-family C member 2, sequence (Q63120 whole entry): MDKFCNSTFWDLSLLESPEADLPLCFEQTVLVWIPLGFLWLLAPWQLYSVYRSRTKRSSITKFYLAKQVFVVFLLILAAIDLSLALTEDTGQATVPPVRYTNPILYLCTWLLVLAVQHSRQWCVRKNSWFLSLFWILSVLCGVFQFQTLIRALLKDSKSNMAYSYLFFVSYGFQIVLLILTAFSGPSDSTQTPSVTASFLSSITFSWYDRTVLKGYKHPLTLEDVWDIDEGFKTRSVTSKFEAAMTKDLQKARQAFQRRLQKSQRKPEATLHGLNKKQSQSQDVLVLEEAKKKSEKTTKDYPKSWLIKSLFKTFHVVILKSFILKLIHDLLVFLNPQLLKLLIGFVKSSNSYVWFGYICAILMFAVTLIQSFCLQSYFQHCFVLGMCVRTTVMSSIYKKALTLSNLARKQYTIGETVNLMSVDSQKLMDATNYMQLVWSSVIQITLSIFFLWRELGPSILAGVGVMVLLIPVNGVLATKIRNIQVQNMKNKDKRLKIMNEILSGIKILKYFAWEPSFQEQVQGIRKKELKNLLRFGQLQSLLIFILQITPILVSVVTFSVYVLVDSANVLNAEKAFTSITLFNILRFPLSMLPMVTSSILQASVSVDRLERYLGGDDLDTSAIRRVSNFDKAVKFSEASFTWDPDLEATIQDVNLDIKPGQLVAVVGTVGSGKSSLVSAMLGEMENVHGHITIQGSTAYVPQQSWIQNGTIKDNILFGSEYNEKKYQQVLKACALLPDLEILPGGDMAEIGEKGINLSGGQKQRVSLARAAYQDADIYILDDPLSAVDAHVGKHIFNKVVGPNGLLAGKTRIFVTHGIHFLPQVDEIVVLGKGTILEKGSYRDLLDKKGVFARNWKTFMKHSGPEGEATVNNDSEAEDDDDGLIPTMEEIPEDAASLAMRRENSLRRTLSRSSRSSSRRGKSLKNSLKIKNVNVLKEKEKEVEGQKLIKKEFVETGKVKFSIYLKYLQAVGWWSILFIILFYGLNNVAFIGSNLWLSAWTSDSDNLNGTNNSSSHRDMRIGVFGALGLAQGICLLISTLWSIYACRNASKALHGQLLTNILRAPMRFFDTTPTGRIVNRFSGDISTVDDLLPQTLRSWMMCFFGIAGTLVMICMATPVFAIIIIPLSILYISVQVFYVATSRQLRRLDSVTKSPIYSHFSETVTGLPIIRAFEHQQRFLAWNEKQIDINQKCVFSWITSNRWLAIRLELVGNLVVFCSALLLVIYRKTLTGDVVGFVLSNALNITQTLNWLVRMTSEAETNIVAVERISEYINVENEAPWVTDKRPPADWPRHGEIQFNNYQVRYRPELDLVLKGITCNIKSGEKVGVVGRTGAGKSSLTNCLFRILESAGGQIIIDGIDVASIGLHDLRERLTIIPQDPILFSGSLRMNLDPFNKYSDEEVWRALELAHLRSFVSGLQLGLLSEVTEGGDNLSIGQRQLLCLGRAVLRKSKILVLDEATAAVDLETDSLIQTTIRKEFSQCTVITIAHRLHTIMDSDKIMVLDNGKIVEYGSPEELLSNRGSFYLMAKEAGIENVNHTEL

Q: For `C[C@@H]1C[C@@H]([C@H](O)CC2CC(=O)NC(=O)C2)C(=O)[C@@H](C)C1` [CYCLOHEXIMIDE], which Activity is on record?
A: inducer [+]
